ChEMBL document CHEMBL5046290, “Design, Synthesis, and Preclinical Profiling of GSK3739936 (BMS-986180), an Allosteric Inhibitor of HIV-1 Integrase with Broad-Spectrum Activity toward 124/125 Polymorphs” (J Med Chem, 2022)

Key:
[1] = test system: Human immunodeficiency virus 1; assay: Antiviral activity against recombinant HIV1 NLRep-Rluc harbouring polymorphic T124/T125 integrase infected in human MT-2 cells assessed as inhibition of virus growth in presence of fetal bovine serum by measuring luciferase activity after 5 days; assay type: functional, organism-based, MT2
[2] = Cytotoxicity against human MT2 cells assessed as cell viability measured after 4 days by XTT assay; assay type: toxicity, cell-based; conditions: time 4 day
[3] = molecular target: T1, Solute carrier organic anion transporter family member 1B1 (Homo sapiens, UniProt Q9Y6L6); assay: Inhibition of OATP1B1 (unknown origin); assay type: ADME
T1 sequence (Q9Y6L6 whole entry): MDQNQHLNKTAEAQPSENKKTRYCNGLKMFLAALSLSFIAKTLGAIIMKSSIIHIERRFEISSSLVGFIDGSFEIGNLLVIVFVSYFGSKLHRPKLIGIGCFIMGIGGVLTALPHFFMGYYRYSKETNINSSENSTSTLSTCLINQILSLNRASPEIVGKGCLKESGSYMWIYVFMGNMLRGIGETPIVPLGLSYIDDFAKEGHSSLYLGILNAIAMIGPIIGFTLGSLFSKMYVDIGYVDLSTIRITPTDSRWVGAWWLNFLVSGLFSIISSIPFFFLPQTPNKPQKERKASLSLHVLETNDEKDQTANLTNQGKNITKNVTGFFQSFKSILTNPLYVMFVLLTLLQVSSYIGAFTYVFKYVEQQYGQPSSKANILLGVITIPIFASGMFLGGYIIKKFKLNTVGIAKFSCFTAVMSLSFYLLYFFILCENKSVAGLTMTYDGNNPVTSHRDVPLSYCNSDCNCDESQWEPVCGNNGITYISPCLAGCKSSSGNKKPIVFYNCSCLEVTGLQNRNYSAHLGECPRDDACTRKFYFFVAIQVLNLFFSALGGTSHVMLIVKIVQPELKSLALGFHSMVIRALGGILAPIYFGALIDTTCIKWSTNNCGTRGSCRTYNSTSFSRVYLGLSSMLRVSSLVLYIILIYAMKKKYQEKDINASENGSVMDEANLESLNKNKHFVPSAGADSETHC

[4] = Displacement of [3H](S)-2-(tert-butoxy)-2-(2-methyl-4-(p-tolyl)quinolin-3-yl)acetic acid from LEDGF-binding site of recombinant T124/T125 polymorphic HIV1 integrase by LIDIA assay; parameters: species or system Human immunodeficiency virus 1
[5] = test system: Human immunodeficiency virus 1; assay: Antiviral activity against recombinant HIV1 NLRep-Rluc harbouring polymorphic AA infected in human MT-2 cells assessed as inhibition of virus growth in presence of fetal bovine serum by measuring luciferase activity after 5 days; assay type: functional, organism-based; conditions: Human immunodeficiency virus 1, NLRep, MT2, 120 h
[6] = Metabolic stability in rat liver microsome assessed half life at 0.5 uM by LC-MS/MS analysis; assay type: ADME; conditions: liver microsomes
[7] = test system: Human immunodeficiency virus 1; assay: Antiviral activity against recombinant HIV1 A128T-resitant mutant […] infected in human MT-2 cells assessed as inhibition of virus growth in presence of fetal bovine serum by measuring luciferase activity after 5 days; assay type: functional, organism-based; conditions: Human immunodeficiency virus 1, MT2, 120 h
[8] = test system: Human immunodeficiency virus 1; assay: Antiviral activity against recombinant HIV1 NLRep-Rluc harbouring polymorphic NA infected in human MT-2 cells assessed as inhibition of virus growth in presence of fetal bovine serum by measuring luciferase activity after 5 days; assay type: functional, organism-based; conditions: Human immunodeficiency virus 1, NLRep, MT2, 120 h
[9] = test system: Human immunodeficiency virus 1; assay: Antiviral activity against recombinant HIV1 NLRep-Rluc harbouring polymorphic NT infected in human MT-2 cells assessed as inhibition of virus growth in presence of fetal bovine serum by measuring luciferase activity after 5 days; assay type: functional, organism-based; conditions: Human immunodeficiency virus 1, NLRep, MT2, 120 h
[10] = Clearance in Sprague-Dawley rat at 1 mg/kg, iv by LC-MS/MS analysis; assay type: ADME, organism-based; conditions: in vivo
[11] = Stability in human liver microsome assessed as half life; assay type: ADME; conditions: liver microsomes
[12] = Metabolic stability in human liver microsome assessed half life at 0.5 uM by LC-MS/MS analysis; assay type: ADME; conditions: liver microsomes
[13] = test system: Human immunodeficiency virus 1; assay: Antiviral activity against recombinant HIV1 NLRep-Rluc harbouring polymorphic TA infected in human MT-2 cells assessed as inhibition of virus growth in presence of fetal bovine serum by measuring luciferase activity after 5 days; assay type: functional, organism-based; conditions: Human immunodeficiency virus 1, NLRep, MT2, 120 h
[14] = test system: Human immunodeficiency virus 1; assay: Antiviral activity against recombinant HIV1 NLRep-Rluc harbouring polymorphic AT infected in human MT-2 cells assessed as inhibition of virus growth in presence of fetal bovine serum by measuring luciferase activity after 5 days; assay type: functional, organism-based; conditions: Human immunodeficiency virus 1, NLRep, MT2, 120 h
[15] = test system: Human immunodeficiency virus 1; assay: Anti retroviral activity against HIV-1 NL4-3 harboring at AA polymorph infected in human MT4 cells by CellTitre-Glo luminescent reagent based assay; assay type: functional, organism-based; conditions: Human immunodeficiency virus 1, NL4-3, MT4
[16] = test system: Human immunodeficiency virus 1; assay: Anti retroviral activity against HIV-1 NL4-3 harboring at NT polymorph infected in human MT4 cells by CellTitre-Glo luminescent reagent based assay; assay type: functional, organism-based; conditions: Human immunodeficiency virus 1, NL4-3, MT4
[17] = test system: Human immunodeficiency virus 1; assay: Anti retroviral activity against HIV-1 NL4-3 harboring at NA polymorph infected in human MT4 cells by CellTitre-Glo luminescent reagent based assay; assay type: functional, organism-based; conditions: Human immunodeficiency virus 1, NL4-3, MT4
[18] = test system: Human immunodeficiency virus 1; assay: Anti retroviral activity against HIV-1 NL4-3 harboring at TT polymorph infected in human MT4 cells by CellTitre-Glo luminescent reagent based assay; assay type: functional, organism-based; conditions: Human immunodeficiency virus 1, NL4-3, MT4
[19] = test system: Human immunodeficiency virus 1; assay: Anti retroviral activity against HIV-1 NL4-3 harboring at TA polymorph infected in human MT4 cells by CellTitre-Glo luminescent reagent based assay; assay type: functional, organism-based; conditions: Human immunodeficiency virus 1, NL4-3, MT4
[20] = test system: Human immunodeficiency virus 1; assay: Anti retroviral activity against HIV-1 NL4-3 harboring at AT polymorph infected in human MT4 cells by CellTitre-Glo luminescent reagent based assay; assay type: functional, organism-based; conditions: Human immunodeficiency virus 1, NL4-3, MT4
[21] = Human immunodeficiency virus 1, NLRep, MT2, 120 h

| SMILES | EC50 [1, 21] | IC50 [4] | EC50 [5] | EC50 [7] | EC50 [8] | EC50 [9] | EC50 [13] | EC50 [14] | further results |
| --- | --- | --- | --- | --- | --- | --- | --- | --- | --- |
| Cc1nc(C)c([C@H](OC(C)(C)C)C(=O)O)c(N2CCC(C)(C)CC2)c1-c1ccc(OCCc2ccc(C#N)cc2)cc1 | 1.5 nM | 13.3 nM | – | – | – | – | – | – | CC50 at 96 h [2]: ≥ 33500 nM; IC50 [3]: 100 nM |
| Cc1nc(C)c([C@H](OC(C)(C)C)C(=O)O)c(N2CCC(C)(C)CC2)c1-c1ccc(OC2COCC2c2ccc(F)cc2)cc1 (stereo in doubt; 40b) | – | 7.9 nM | 1.7 nM | > 500 nM | 3.7 nM | 0.53 nM | 0.92 nM | 1.3 nM | half-life at 0.5 µM [6]: > 120 min; EC50 ([1]; mt2): 0.6 nM; clearance [10]: 23.4 mL/min/kg; half-life [11]: 47 min; half-life at 0.5 µM [12]: 47 min |
| Cc1nc2ccccc2c(-c2ccc3c4c(ccnc24)CCO3)c1[C@H](OC(C)(C)C)C(=O)O [BI-224436] | 49 nM | – | 28.1 nM | > 500 nM | 49.1 nM | 56.3 nM | 49.5 nM | 48.7 nM | EC50 [15]: 32 nM; EC50 [16]: 32 nM; EC50 [17]: 32 nM; EC50 [18]: 32 nM; EC50 [19]: 32 nM; EC50 [20]: 32 nM |
